Measured values published in the NIST ThermoML archive (doi:10.1016/j.tca.2012.10.004).
± gives the expanded uncertainty stated by the source.

Test: xn = mol fraction of the nth substance listed
Details: 101 kPa, Liquid, Pycnometric method

CN(CCO)CCO [N-methyldiethanolamine] + O=S1(=O)CCCC1
mass density [kg/m3]
Details	x1 = 0.1001	x1 = 0.2012	x1 = 0.2999	x1 = 0.4003	x1 = 0.5005	x1 = 0.6	x1 = 0.7002	x1 = 0.8011	x1 = 0.8998	x1 = 1
293.15 K	1241.9 ± 0.6	1214.9 ± 0.6	1188 ± 0.6	1163.1 ± 0.6	1139.8 ± 0.5	1118.1 ± 0.5	1097.7 ± 0.5	1078.9 ± 0.5	1059.9 ± 0.5	1041.6 ± 0.5
298.15 K	1237.6 ± 0.6	1210.5 ± 0.6	1183.9 ± 0.6	1159.1 ± 0.6	1135.7 ± 0.5	1114.1 ± 0.5	1093.6 ± 0.5	1074.9 ± 0.5	1055.9 ± 0.5	1037.9 ± 0.5
303.15 K	1233.1 ± 0.6	1205.9 ± 0.6	1179.5 ± 0.6	1154.8 ± 0.6	1131.5 ± 0.6	1110 ± 0.5	1089.6 ± 0.5	1070.9 ± 0.5	1051.9 ± 0.5	1034.1 ± 0.5
308.15 K	1228.6 ± 0.6	1201.5 ± 0.6	1175.1 ± 0.6	1150.4 ± 0.6	1127.2 ± 0.6	1105.8 ± 0.5	1085.6 ± 0.5	1066.8 ± 0.5	1048 ± 0.5	1030.3 ± 0.5
313.15 K	1224.1 ± 0.6	1197 ± 0.6	1170.7 ± 0.6	1146.2 ± 0.6	1123.1 ± 0.6	1101.6 ± 0.6	1081.5 ± 0.5	1062.8 ± 0.5	1044 ± 0.5	1026.5 ± 0.5
318.15 K	1219.6 ± 0.7	1192.4 ± 0.6	1166.3 ± 0.6	1141.9 ± 0.6	1118.9 ± 0.6	1097.5 ± 0.6	1077.5 ± 0.5	1058.7 ± 0.5	1040 ± 0.5	1022.7 ± 0.5
323.15 K	1215.2 ± 0.7	1187.6 ± 0.6	1161.9 ± 0.6	1137.5 ± 0.6	1114.6 ± 0.6	1093.3 ± 0.6	1073.3 ± 0.6	1054.7 ± 0.5	1035.9 ± 0.5	1018.9 ± 0.5
328.15 K	1211.1 ± 0.7	1183.3 ± 0.7	1157.7 ± 0.6	1133.2 ± 0.6	1110.4 ± 0.6	1089.2 ± 0.6	1069.2 ± 0.6	1050.6 ± 0.6	1032 ± 0.5	1015 ± 0.5
